From patent publication US10765754B2, “Compositions and methods related to inhibition of respiratory syncytial virus entry” (priority 2015, dated 2020) come the findings set out here.

Where two headings read alike, the source gives them in different places. Starred links: 1 amine or outer side, 2 acyl side, 3 side chain; linkers in the order of their positions; H or OH if unused. Positions of bridges follow the written chain, without caps; N, C: chain ends. Non-standard residues stand in square brackets, D forms with d. Residues, ends and D or L forms follow the SMILES beside them. Chains are numbered I, II in the order given. X1 = NCCOCCOCCOCCOCCOCCOCCOCCOCCOCCOCCOCCOCCOCCOCCOCCOCCOCCOCCOCCOCCOCCOCCOCCOCCOCCOCCOCCOCCC(=O)NC(CCC(=O)[*:1])(CCC(=O)[*:2])CCC(=O)[*:3]; PEG6 = NCCOCCOCCOCCOCCOCCOCCC(=O)O

The experiment addresses T1, RSV-A F protein (Human respiratory syncytial virus A, UniProt P03420).
T1 construct: expressed in transfected cells; host or cells: 293 T cells
Description: cell-based. How it is done:
The RSV Syncytia reduction assay was used to evaluate D-peptide inhibitors of RSV entry (IC50). In brief, 293 T cell were plated in a 96-well plate and a 6-well plate. The cells in the 96-well plate were co-transfected with DNA encoding the RSV F protein (or RSV G protein as a negative control) and DNA encoding firefly luciferase downstream of multiple GAL4 binding sites (CheckMate Mammalian Two-Hybrid system, Promega). These cells were designated the effector cells. The cells in the 6-well plate were transfected with GAL4:Id and VP16:MyoD fusion constructs, which interact and drive gene expression in the presence of GAL4 binding sites. These cells were the target cells. At 24 hours post-transfection, the media is removed from the effector cells and D-peptide inhibitors at 2× concentration (diluted in fresh media) were added. Also at 24 hours post-transfection, the target cells are washed with PBS, gently dissociated from the 6-well plate using Versene (0.48 mM EDTA in PBS), and overlaid (at equal volume) onto the effector cells containing 2× inhibitor. At 48 h post-transfection, the cells are lysed using Glo Lysis Buffer (Promega). Bright Glo luciferase assay substrate is added and luminescent signal from expressed luciferase is measured. Luciferase is only expressed in effector cells that fuse (form syncytia) with target cells.

Setting [1] is: IC50, subsequent trimer/compound made from peptide, syncytia reduction assay using RSV-A F protein.
[2] abbreviates: IC50, (L) inhibitors of RSV, controls for D-peptide studies, assay not stated in Table 6.
[3] abbreviates: (L) inhibitors of RSV, controls for D-peptide studies, assay not stated in Table 6, read-out: IC50.

T1 sequence (P03420 137-574): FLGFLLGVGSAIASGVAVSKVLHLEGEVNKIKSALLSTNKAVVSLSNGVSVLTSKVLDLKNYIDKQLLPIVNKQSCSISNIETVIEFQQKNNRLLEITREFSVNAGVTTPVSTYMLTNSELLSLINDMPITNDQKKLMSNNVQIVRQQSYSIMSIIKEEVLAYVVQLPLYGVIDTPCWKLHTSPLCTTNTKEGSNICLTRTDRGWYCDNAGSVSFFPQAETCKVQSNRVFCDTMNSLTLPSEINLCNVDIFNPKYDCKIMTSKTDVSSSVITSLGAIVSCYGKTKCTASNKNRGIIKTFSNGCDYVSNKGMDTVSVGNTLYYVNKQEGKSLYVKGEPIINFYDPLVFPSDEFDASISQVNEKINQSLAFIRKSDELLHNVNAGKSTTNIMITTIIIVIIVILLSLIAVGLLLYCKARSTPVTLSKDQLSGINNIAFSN
T1 sequence (P03420 26-109): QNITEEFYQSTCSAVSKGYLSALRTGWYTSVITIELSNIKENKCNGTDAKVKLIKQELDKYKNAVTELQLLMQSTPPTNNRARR

With “I: Ac-[dS][dM][dC][dV][dN][dR][dP][dE][dW][dL][dL][dD][dW][dC]G[dT]G[dD][dD][PEG6][dK]-NH2 / II: Ac-[dS][dM][dC][dV][dN][dR][dP][dE][dW][dL][dL][dD][dW][dC]G[dT]G[dD][dD][PEG6][dK]-NH2 / III: Ac-[dS][dM][dC][dV][dN][dR][dP][dE][dW][dL][dL][dD][dW][dC]G[dT]G[dD][dD][PEG6][dK]-NH2 (disulfide I:3-I:14, II:3-II:14, III:3-III:14; linker I:21-II:21-III:21 via X1; C-terminus assumed) [Ac-RSVP24-GDD(PEG6)K-trimer]”, under setting [1], the half-maximal inhibitory concentration (IC50) is 4.6 µM. As to `CC(=O)N[C@H](CCCCN)C(=O)NCC(=O)NCC(=O)N[C@H](C)C(=O)N[C@@H]1CSSC[C@H](C(=O)N[C@H](C)C(=O)N[C@H](C)C(N)=O)NC(=O)[C@@H](Cc2c[nH]c3ccccc23)NC(=O)[C@@H](CC(=O)O)NC(=O)[C@@H](CC(C)C)NC(=O)[C@@H](CC(C)C)NC(=O)[C@@H](Cc2c[nH]c3ccccc23)NC(=O)[C@@H](Cc2c[nH]cn2)NC(=O)[C@H]2CCCN2C(=O)[C@@H](CCC(=O)O)NC(=O)[C@@H](CC(N)=O)NC(=O)[C@@H](CCCNC(=N)N)NC1=O` [Ac-KG-RSVP20] (Ac-[dK]GG[dA][dC][dR][dN][dE][dP][dH][dW][dL][dL][dD][dW][dC][dA][dA]-NH2; disulfide 5-16), it took 673 µM to reach half-maximal inhibition (IC50, synthesized peptide, syncytia reduction assay using RSV-A F protein) (IC50).

As to “Ac-IKKEIEAIKKEQEAIKKKIEAIEKEVNKIKSALLSTNKAVVSLSNGVSVLTSKVLDLKNYIDKQLLPIV-NH2 [Ac-RSV-A IZN45]”, the IC50 under setting [2] worked out at 0.006 µM.

On to “I: Ac-[dK][PEG6]G[dH][dA][dC][dV][dN][dR][dP][dE][dW][dL][dL][dD][dW][dC]G[dR]G[dR][dR]-NH2 / II: Ac-[dK][PEG6]G[dH][dA][dC][dV][dN][dR][dP][dE][dW][dL][dL][dD][dW][dC]G[dR]G[dR][dR]-NH2 / III: Ac-[dK][PEG6]G[dH][dA][dC][dV][dN][dR][dP][dE][dW][dL][dL][dD][dW][dC]G[dR]G[dR][dR]-NH2 (linker I:1-II:1-III:1 via X1; disulfide I:6-I:17, II:6-II:17, III:6-III:17) [Ac-K(PEG6)G-RSVP26-GRR-trimer]”, for which the IC50 under setting [1] was found to be 5.5 µM. In turn, “I: Ac-YGFDASISQVNEKINQSLAFIRKSDELLHNVNAGKSTG[PEG6]KGKG-NH2 / II: Ac-YGFDASISQVNEKINQSLAFIRKSDELLHNVNAGKSTG[PEG6] / III: Ac-YGFDASISQVNEKINQSLAFIRKSDELLHNVNAGKSTG[PEG6] (amide I:40-II:C, I:42-III:C) [YG-T118-Tricasso]” gave a half-inhibitory concentration (IC50) under setting [2] of 0.65 µM.

As to “LEGEVNKIKSALLSTNKAVVSLSNGVSVLTSKVLDLKNYIDKQLLPIVNIKKEIEAIKKEQEAIKKKIEAI-GKG-(Glu-biotinyl-PEG)-NH2 [RSVA N49IZ-GKG(Glu-Biotinyl-PEG)]”, the IC50 under setting [3] came out at 0.102 µM. “H-YGFDASISQVNEKINQSLAFIRKSDELLHNVNAGKST-NH2 [YG-T118]” had an IC50 under setting [2] of 8 µM. Under setting [1], “I: Ac-[dK][PEG6][dD][dD]G[dS][dM][dC][dV][dN][dR][dP][dE][dW][dL][dL][dD][dW][dC]G[dT]-NH2 / II: Ac-[dK][PEG6][dD][dD]G[dS][dM][dC][dV][dN][dR][dP][dE][dW][dL][dL][dD][dW][dC]G[dT]-NH2 / III: Ac-[dK][PEG6][dD][dD]G[dS][dM][dC][dV][dN][dR][dP][dE][dW][dL][dL][dD][dW][dC]G[dT]-NH2 (linker I:1-II:1-III:1 via X1; disulfide I:8-I:19, II:8-II:19, III:8-III:19) [Ac-K(PEG6)DDG-RSVP24-trimer]” displayed a 50% inhibitory concentration (IC50) of 5.5 µM. In the case of “(biotin-PEG2)GKG-IKKEIEAIKKEQEAIKKKIEALEGEVNKIKSALLSTNKAVVSLSNGVSVLTSKVLDLKNYIDKQLLPIV-NH2 [(Biotin-PEG2)GKG-RSVA IZN48]”, under setting [3], the IC50 worked out at 0.215 µM.

As usually defined, the IC50 is the midpoint of a concentration-inhibition curve.
